From ChEMBL document CHEMBL1641495, “8-Aza-7,9-dideazaxanthine acyclic nucleoside phosphonate inhibitors of thymidine phosphorylase” (Bioorg Med Chem Lett, 2011) come the findings set out here.

pIC50: −log10 of the molar value.

The target of assay [1] is T1, Thymidine phosphorylase (Escherichia coli K-12, UniProt P07650). Briefly: Inhibition of [3H]methylthymidine binding to Escherichia coli thymidine phosphorylase after 20 mins by scintillation counting.
Assay [2] concerns the target Thymidine phosphorylase (Escherichia coli K-12) (UniProt P07650). Briefly: Inhibition of [3H]methylthymidine binding to Escherichia coli thymidine phosphorylase at 100 uM after 20 mins by scintillation counting.
Assay [3] has the same target. Briefly: Inhibition of [3H]methylthymidine binding to Escherichia coli thymidine phosphorylase at 20 uM after 20 mins by scintillation counting.
The target in assay [4] is T1, Thymidine phosphorylase. Briefly: Inhibition of [3H]methylthymidine binding to Escherichia coli thymidine phosphorylase after 10 mins by scintillation counting.

Usually pIC50 stands for −log10 of the IC50, conventionally taken in molar units. The inhibition is the share of the control response that was lost under treatment. Higher therefore signals a response far below the control.

T1 sequence (P07650 whole entry): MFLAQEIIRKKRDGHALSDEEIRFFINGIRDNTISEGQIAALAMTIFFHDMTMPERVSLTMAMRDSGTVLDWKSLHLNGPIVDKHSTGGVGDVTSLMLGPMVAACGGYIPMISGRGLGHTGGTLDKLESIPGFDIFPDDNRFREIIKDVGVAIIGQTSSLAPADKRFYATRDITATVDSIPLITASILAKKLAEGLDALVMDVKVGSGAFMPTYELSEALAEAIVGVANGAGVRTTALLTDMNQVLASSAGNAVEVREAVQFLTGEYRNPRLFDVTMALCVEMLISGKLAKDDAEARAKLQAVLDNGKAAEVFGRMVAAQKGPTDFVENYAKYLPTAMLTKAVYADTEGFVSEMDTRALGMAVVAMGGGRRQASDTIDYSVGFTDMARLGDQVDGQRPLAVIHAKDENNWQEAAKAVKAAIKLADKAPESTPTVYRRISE
Chain of Thymidine phosphorylase (Escherichia coli K-12) (P07650 whole entry, looked up): as the sequence (P07650 whole entry) above

`O=c1[nH]c(=O)c2cn(CCCCCCCCP(=O)(O)O)cc2[nH]1` showed a pIC50 at Thymidine phosphorylase [1] of 4.92.
Compound `O=c1[nH]c(=O)n(CCCCCCCCP(=O)(O)O)c2c[nH]cc12` showed a pIC50 on Thymidine phosphorylase [1] of 5.17. Compared with the last compound, the pIC50 is 0.25 log units higher.
On Thymidine phosphorylase [1], `O=c1[nH]c(=O)c2cn(CCCCCCCCn3cc4[nH]c(=O)[nH]c(=O)c4c3)cc2[nH]1` showed a pIC50 of 5.46.
Consider `O=c1[nH]c(=O)n(CCCCCCCCP(=O)(O)O)c2[nH]ccc12`, for which the inhibition in assay [2] came out at 83%; in assay [3], 48%. At Thymidine phosphorylase [4], this compound had a pIC50 of 4.94.
